Common to all, as to format: cell-based
The target of assay [1] is T1, human serotonin transporter (Homo sapiens, UniProt P31645).
T1 construct: expressed in transfected cells
As to the kind of experiment: Inhibitory action on human serotonin transporter ([3H]-5-hydroxytryptamine uptake in CHO cells). The note with it: compound 1 μM, relative to inhibitory activity of 10 μM Paroxetine as 100%; for inhibition at 1 µM: CHO, read-out: inhibitory rate (%). The procedure, abridged: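 CHO-K1 cells stably expressing human SERT, plated overnight, took up [3H]-5-HT (diluted to 200 nM before a 1:10 addition) for 20 min in HEPES-buffered saline with glucose and 0.5% BSA; radioactivity counted by scintillation. Compounds at 10 μM or 1 μM, activity expressed relative to 10 μM paroxetine set as 100%.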

In assay [2] the target is T2, human norepinephrine transporter (Homo sapiens, UniProt P23975).
T2 construct: expressed in transfected cells
T2 sequence (P23975 whole entry): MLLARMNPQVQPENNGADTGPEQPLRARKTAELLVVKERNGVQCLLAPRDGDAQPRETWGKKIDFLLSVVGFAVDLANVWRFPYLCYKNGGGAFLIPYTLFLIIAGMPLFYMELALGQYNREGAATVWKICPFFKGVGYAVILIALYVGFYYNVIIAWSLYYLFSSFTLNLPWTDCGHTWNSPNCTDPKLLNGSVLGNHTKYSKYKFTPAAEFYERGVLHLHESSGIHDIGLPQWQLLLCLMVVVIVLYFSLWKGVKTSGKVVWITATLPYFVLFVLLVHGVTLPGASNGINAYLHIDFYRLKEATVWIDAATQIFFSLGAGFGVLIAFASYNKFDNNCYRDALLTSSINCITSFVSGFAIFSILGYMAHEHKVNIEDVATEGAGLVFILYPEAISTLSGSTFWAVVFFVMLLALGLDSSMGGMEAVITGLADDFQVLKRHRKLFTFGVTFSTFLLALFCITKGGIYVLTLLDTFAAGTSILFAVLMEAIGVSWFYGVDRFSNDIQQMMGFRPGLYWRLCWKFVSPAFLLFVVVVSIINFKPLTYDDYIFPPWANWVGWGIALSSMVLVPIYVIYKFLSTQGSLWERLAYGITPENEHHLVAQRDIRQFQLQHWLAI
As to the kind of experiment: Inhibitory action on human norepinephrine transporter ([3H]-norepinephrine uptake in CHO cells). The note with it: compound 1 μM, relative to inhibitory activity of 10 μM DMI as 100%; for inhibition at 1 µM: CHO, read-out: inhibitory rate (%). The procedure, abridged: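 Stably transfected CHO-K1 cells plated overnight, then given test compound and [3H]-norepinephrine (20 nM final, from 200 nM) in HEPES-buffered saline with 0.5% BSA for 45 min. After PBS washes, retained radioactivity counted by scintillation. Inhibition at 10 μM or 1 μM compound expressed relative to 10 μM DMI as 100%.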

Assay [3] concerns the target T3, human dopamine transporter (Homo sapiens, UniProt Q01959).
T3 construct: expressed in transfected cells
Nature of the assay: Inhibitory action on human dopamine transporter ([3H]-dopamine uptake in CHO cells). Conditions: compound 1 μM, relative to inhibitory activity of 100 μM Nomifensine as 100%; for inhibition at 1 µM: CHO, read-out: inhibitory rate (%). The procedure, abridged:
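CHO-K1 cells stably expressing human dopamine transporter, exposed to compound at 10 μM or 1 μM in HEPES-buffered saline with 0.5% BSA. [3H]-dopamine uptake measured over 60 min by scintillation counting. Activity expressed relative to 100 μM nomifensine as 100%.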

Counter-ions that a name gives are not always drawn.

T3 sequence (Q01959 whole entry): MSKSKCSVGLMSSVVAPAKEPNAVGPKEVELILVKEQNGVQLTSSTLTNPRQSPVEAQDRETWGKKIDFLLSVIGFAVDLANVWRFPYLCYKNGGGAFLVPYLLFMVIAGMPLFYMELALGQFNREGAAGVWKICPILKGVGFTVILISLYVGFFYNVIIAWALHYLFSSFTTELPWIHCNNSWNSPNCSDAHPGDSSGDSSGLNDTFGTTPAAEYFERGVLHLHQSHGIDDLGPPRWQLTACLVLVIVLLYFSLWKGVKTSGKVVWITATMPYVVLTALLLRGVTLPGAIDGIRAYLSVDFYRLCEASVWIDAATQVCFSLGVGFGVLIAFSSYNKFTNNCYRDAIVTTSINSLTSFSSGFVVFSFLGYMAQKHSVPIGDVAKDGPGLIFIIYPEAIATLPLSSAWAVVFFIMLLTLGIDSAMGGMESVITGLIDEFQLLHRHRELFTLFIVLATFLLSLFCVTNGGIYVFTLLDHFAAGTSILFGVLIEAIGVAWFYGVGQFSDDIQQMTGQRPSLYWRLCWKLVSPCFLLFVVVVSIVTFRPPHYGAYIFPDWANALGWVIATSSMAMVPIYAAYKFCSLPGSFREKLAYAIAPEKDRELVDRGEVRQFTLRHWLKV
T1 sequence (P31645 whole entry): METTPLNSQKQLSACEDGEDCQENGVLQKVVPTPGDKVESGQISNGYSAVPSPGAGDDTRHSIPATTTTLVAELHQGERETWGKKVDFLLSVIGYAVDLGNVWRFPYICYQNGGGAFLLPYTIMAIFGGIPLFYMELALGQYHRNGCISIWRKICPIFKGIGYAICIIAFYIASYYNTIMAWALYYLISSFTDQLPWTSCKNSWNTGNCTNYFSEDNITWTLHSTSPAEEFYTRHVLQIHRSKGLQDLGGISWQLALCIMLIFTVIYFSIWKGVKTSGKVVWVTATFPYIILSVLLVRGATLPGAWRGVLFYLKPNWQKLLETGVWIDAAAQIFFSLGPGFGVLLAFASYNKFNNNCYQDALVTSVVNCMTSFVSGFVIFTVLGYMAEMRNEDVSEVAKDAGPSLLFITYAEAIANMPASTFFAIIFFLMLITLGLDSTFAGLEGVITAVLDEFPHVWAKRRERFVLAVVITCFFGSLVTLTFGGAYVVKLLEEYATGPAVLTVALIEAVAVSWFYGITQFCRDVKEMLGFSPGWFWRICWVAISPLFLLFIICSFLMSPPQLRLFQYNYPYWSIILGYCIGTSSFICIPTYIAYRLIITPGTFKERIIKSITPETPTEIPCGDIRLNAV

In the case of `Cc1ccc(C2OCCNCC2CO)cc1Cl` (stereo not drawn) [Example 405, [(6R*,7S*)-7-(3-chloro-4-methylphenyl)-1,4-oxazepan-6-yl]methanol monohydrochloride (retention time short)], the figures for the inhibition at 1 µM in assay [1], in assay [2] and in assay [3] were 71%, 100% and 12%, respectively.
With `Cc1ccc(C2OCCNCC2CO)cc1Cl` (stereo not drawn) [Example 406, [(6R*,7S*)-7-(3-chloro-4-methylphenyl)-1,4-oxazepan-6-yl]methanol monohydrochloride (retention time long)], the “inhibitory rate (%)” value in assay [1] amounted to 82%; in assay [2], 98%; in assay [3], 22%.
For the compound `OCCOC[C@@]1(c2ccc(Cl)c(Cl)c2)CCNCCO1` [Example 416, 2-{[(7S)-7-(3,4-dichlorophenyl)-1,4-oxazepan-7-yl]methoxy}ethanol monohydrochloride], the figures for the inhibition at 1 µM in assay [1], in assay [2] and in assay [3] were 85%, 100% and 18%, respectively.
On to `OCC(O)COC[C@@]1(c2ccc(Cl)c(Cl)c2)CCNCCO1` (stereo partly drawn) [Example 417, 3-{[(7S)-7-(3,4-dichlorophenyl)-1,4-oxazepan-7-yl]methoxy}propane-1,2-diol monohydrochloride], for which the inhibition at 1 µM was 92% in assay [1], 102% in assay [2] and 17% in assay [3].
In the same order, the values of `CS(=O)(=O)NC[C@@]1(c2ccc(Cl)c(Cl)c2)CCNCCO1` [Example 432, N-{[(7S)-7-(3,4-dichlorophenyl)-1,4-oxazepan-7-yl]methyl}methanesulfonamide monohydrochloride] are 84%, 97% and 10%.
Turning to `O=C1CNC(=O)N1C[C@]1(c2ccc(Cl)c(Cl)c2)CCNCCO1` [Example 438, 3-{[(7R)-7-(3,4-dichlorophenyl)-1,4-oxazepan-7-yl]methyl}imidazolidine-2,4-dione monohydrochloride], the inhibition at 1 µM came out at 81% in assay [1], 97% in assay [2] and 6% in assay [3].
For `O=C1CNC(=O)N1C[C@@]1(c2ccc(Cl)c(Cl)c2)CCNCCO1` [Example 439, 3-{[(7S)-7-(3,4-dichlorophenyl)-1,4-oxazepan-7-yl]methyl}imidazolidine-2,4-dione monohydrochloride], in that order: 74%, 98% and 7%.
With `OCC1CNCCOC1c1ccc(Cl)c(F)c1` (stereo not drawn) [Example 440, [(6R*,7R*)-7-(4-chloro-3-fluorophenyl)-1,4-oxazepan-6-yl]methanol monohydrochloride (retention time short)], the “inhibitory rate (%)” value in assay [1] was found to be 93%. Also, the values for the inhibition at 1 µM in assay [2] and in assay [3] were 105% and 10%, respectively.
For the compound `OCC1CNCCOC1c1ccc(Cl)c(F)c1` (stereo not drawn) [Example 441, [(6R*,7R*)-7-(4-chloro-3-fluorophenyl)-1,4-oxazepan-6-yl]methanol monohydrochloride (retention time long)], the entries for the “inhibitory rate (%)” value in assay [1], in assay [2] and in assay [3] were 51%, 103% and 6%, respectively.
`OC[C@H]1OCCNC[C@H]1c1ccc(Cl)c(Cl)c1` [Example 447, [(6R,7S)-6-(3,4-dichlorophenyl)-1,4-oxazepan-7-yl]methanol monohydrochloride]: the inhibition at 1 µM is 42% in assay [1], 99% in assay [2] and 51% in assay [3].
For the compound `OC[C@@H]1OCCNC[C@@H]1c1ccc(Cl)c(Cl)c1` [Example 448, [(6S,7R)-6-(3,4-dichlorophenyl)-1,4-oxazepan-7-yl]methanol monohydrochloride], the inhibition at 1 µM in assay [1] was determined as 28%; in assay [2], 88%; in assay [3], 7%.
Regarding `CC(=O)NC[C@H]1OCCNC[C@H]1c1ccc(Cl)c(Cl)c1` [Example 453, N-{[(6R,7S)-6-(3,4-dichlorophenyl)-1,4-oxazepan-7-yl]methyl}acetamide monohydrochloride], the inhibition at 1 µM in assay [1] worked out at 41%; in assay [2], 104%; in assay [3], 99%.
In the same order, the values of `CS(=O)(=O)NC[C@H]1OCCNC[C@H]1c1ccc(Cl)c(Cl)c1` [Example 467, N-{[(6R,7S)-6-(3,4-dichlorophenyl)-1,4-oxazepan-7-yl]methyl}methanesulfonamide monohydrochloride] are 38%, 102% and 60%.
As to `O=S(=O)(NC[C@H]1OCCNC[C@H]1c1ccc(Cl)c(Cl)c1)C(F)F` [Example 470, N-{[(6R,7S)-6-(3,4-dichloropheny))-1,4-oxazepan-7-yl]methyl}-1,1-difluoromethanesulfonamide monohydrochloride], the inhibition at 1 µM was determined as 66% in assay [1], 103% in assay [2] and 91% in assay [3].
For `O=c1cccnn1C[C@H]1OCCNC[C@H]1c1ccc(Cl)c(Cl)c1` [Example 481, 2-{[(6R,7S)-6-(3,4-dichlorophenyl)-1,4-oxazepan-7-yl]methyl}pyridazin-3(2H)-one monohydrochloride], in that order: 76%, 100% and 61%.
For `OC[C@H]1OCCNC[C@@H]1c1ccc(Cl)c(Cl)c1` [Example 487, [(6S,7S)-6-(3,4-dichlorophenyl)-1,4-oxazepan-7-yl]methanol monohydrochloride], in that order: 15%, 70% and 14%.
For `OC[C@@H]1OCCNC[C@H]1c1ccc(Cl)c(Cl)c1` [Example 488, [(6R,7R)-6-(3,4-dichlorophenyl)-1,4-oxazepan-7-yl]methanol monohydrochloride], in that order: 61%, 102% and 37%.
On to `OCC(O)(CO)[C@@H]1OCCNC[C@H]1c1ccc(Cl)c(Cl)c1` [Example 491, 2-[(6R,7R)-6-(3,4-dichlorophenyl)-1,4-oxazepan-7-yl]propane-1,2,3-triol monohydrochloride], for which the inhibition at 1 µM in assay [1] amounted to 77%; in assay [2], 100%; in assay [3] it was 77%.
Turning to `OCCOC[C@@H]1OCCNC[C@H]1c1ccc(Cl)c(Cl)c1` [Example 496, 2-{[(6R,7R)-6-(3,4-dichlorophenyl)-1,4-oxazepan-7-yl]methoxy}ethanol monohydrochloride], the inhibition at 1 µM worked out at 62% in assay [1], 105% in assay [2] and 57% in assay [3].
For `O=C(CO)NC[C@@H]1OCCNC[C@H]1c1ccc(Cl)c(Cl)c1` [Example 507, N-{[(6R,7R)-6-(3,4-dichlorophenyl)-1,4-oxazepan-7-yl]methyl}-2-hydroxyacetamide monohydrochloride], in that order: 46%, 104% and 25%.
In the same order, the values of `O=c1cccnn1C[C@@H]1OCCNC[C@H]1c1ccc(Cl)c(Cl)c1` [Example 515, 2-{[(6R,7R)-6-(3,4-dichlorophenyl)-1,4-oxazepan-7-yl]methyl}pyridazin-3(2H)-one monohydrochloride] are 82%, 104% and 53%.
In the same order, the values of `O=c1[nH]c(-c2cccnc2OC2CNCCOC2c2ccc(Cl)c(Cl)c2)no1` (stereo not drawn) [Example 525, 3-(2-{[(6R*,7S*)-7-(3,4-dichlorophenyl)-1,4-oxazepan-yl]oxy}pyridin-3-yl)-1,2,4-oxadiazol-5(4H)-one monohydrochloride (retention time long)] are 97%, 104% and 98%.
On to `O=C1NCCCN1C[C@H]1OCCNC[C@H]1c1ccc(Cl)c(Cl)c1` [Example 545, 1-{[(6R,7S)-6-(3,4-dichlorophenyl)-1,4-oxazepan-7-yl]methyl}tetrahydropyrimidin-2(1H)-one monohydrochloride], for which the inhibition at 1 µM was determined as 94% in assay [1], 108% in assay [2] and 81% in assay [3].
For `O=c1[nH]nc(-c2cccn(C[C@@H]3CNCCO[C@H]3c3ccc(Cl)c(F)c3)c2=O)o1` [Example 550, 1-{[(6S,7R)-7-(4-chloro-3-fluorophenyl)-1,4-oxazepan-6-yl]methyl}-3-(5-oxo-4,5-dihydro-1,3,4-oxadiazol-2-yl)pyridin-2(1H)-one monohydrochloride], in that order: 97%, 109% and 46%.
For `O[C@@H]1CNCCO[C@H]1c1ccc(Cl)c(F)c1` [Example 552, (6R,7S)-7-(4-chloro-3-fluorophenyl)-1,4-oxazepan-6-ol monohydrochloride], in that order: 14%, 107% and 1%.
